Measured values: ChEMBL document CHEMBL1201862, “PubChem BioAssay data set” (2004)
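1) Cells in 96-well plates. 2) Compound, 48 h, 5 concentrations. 3) Linear interpolation between surrounding doses. 4) Unreached endpoint = highest concentration. Here, GI50 denotes the concentration required for 50% inhibition of growth.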 Activity calls are given as the source filed them. Cut-off read from the data, not from the text of the source: active = GI50 up to about 1.1 µM and inactive = higher.

Assays:
Assay in all cases: growth of human tumour cells (NCI), 48 h
786-0 = test system: 786-0
A498 = test system: A498
A549 = test system: A549
ACHN = test system: ACHN
CAKI-1 = test system: CAKI-1
CCRF-CEM = test system: CCRF-CEM
COLO 205 = test system: COLO 205
DLD-1 = test system: DLD-1
DMS-114 = test system: DMS-114
DMS-273 = test system: DMS-273
DU-145 = test system: DU-145
EKVX = test system: EKVX
HCC 2998 = test system: HCC 2998
HCT-116 = test system: HCT-116
HCT-15 = test system: HCT-15
HL-60 = test system: HL-60
HOP-18 = test system: HOP-18
HOP-62 = test system: HOP-62
HOP-92 = test system: HOP-92
HT-29 = test system: HT-29
Hs-578T = test system: Hs-578T
IGROV-1 = test system: IGROV-1
K562 = test system: K562
KM-20L2 = test system: KM-20L2
KM12 = test system: KM12
LOX IMVI = test system: LOX IMVI
M14 = test system: M14
M19-MEL = test system: M19-MEL
MCF7 = test system: MCF7
MDA-MB-231 = test system: MDA-MB-231
MDA-MB-435 = test system: MDA-MB-435
MDA-N = test system: MDA-N
MOLT-4 = test system: MOLT-4
Malme-3M = test system: Malme-3M
NCI-H226 = test system: NCI-H226
NCI-H23 = test system: NCI-H23
NCI-H460 = test system: NCI-H460
NCI-H522 = test system: NCI-H522
NCI/ADR-RES = test system: NCI/ADR-RES
OVCAR-3 = test system: OVCAR-3
OVCAR-4 = test system: OVCAR-4
OVCAR-5 = test system: OVCAR-5
OVCAR-8 = test system: OVCAR-8
PC-3 = test system: PC-3
RPMI-8226 = test system: RPMI-8226
RXF 393 = test system: RXF 393
RXF 631 = test system: RXF 631
SF-268 = test system: SF-268
SF-295 = test system: SF-295
SF-539 = test system: SF-539
SK-MEL-28 = test system: SK-MEL-28
SK-MEL-2 = test system: SK-MEL-2
SK-MEL-5 = test system: SK-MEL-5
SK-OV-3 = test system: SK-OV-3
SN12C = test system: SN12C
SNB-19 = test system: SNB-19
SNB-75 = test system: SNB-75
SNB-78 = test system: SNB-78
SR = test system: SR
SW-620 = test system: SW-620
T47D = test system: T47D
TK-10 = test system: TK-10
U-251 = test system: U-251
UACC-257 = test system: UACC-257
UACC-62 = test system: UACC-62
UO-31 = test system: UO-31
XF498 = test system: XF498

Compound: COc1cc([C@H]2c3cc4c(cc3O[C@@]3(O)COC(=O)[C@@H]23)OCO4)cc(OC)c1OC
- GI50 (786-0): > 100 µM (inactive)
- GI50 (A498): > 100 µM (inactive)
- GI50 (A549): > 100 µM (inactive)
- GI50 (ACHN): > 100 µM (inactive)
- GI50 (CAKI-1): > 100 µM (inactive)
- GI50 (CCRF-CEM): > 100 µM (inactive)
- GI50 (COLO 205): > 100 µM (inactive)
- GI50 (DLD-1): > 100 µM (inactive)
- GI50 (DMS-114): > 100 µM (inactive)
- GI50 (DMS-273): > 100 µM (inactive)
- GI50 (DU-145): > 100 µM (inactive)
- GI50 (EKVX): > 100 µM (inactive)
- GI50 (HCC 2998): > 100 µM (inactive)
- GI50 (HCT-116): > 100 µM (inactive)
- GI50 (HCT-15): > 100 µM
- GI50 (HL-60): > 100 µM (inactive)
- GI50 (HOP-18): > 100 µM (inactive)
- GI50 (HOP-62): > 100 µM (inactive)
- GI50 (HOP-92): > 100 µM (inactive)
- GI50 (HT-29): > 100 µM (inactive)
- GI50 (Hs-578T): > 100 µM (inactive)
- GI50 (IGROV-1): > 100 µM (inactive)
- GI50 (K562): > 100 µM (inactive)
- GI50 (KM-20L2): > 100 µM (inactive)
- GI50 (KM12): > 100 µM (inactive)
- GI50 (LOX IMVI): > 100 µM (inactive)
- GI50 (M14): > 100 µM (inactive)
- GI50 (M19-MEL): > 100 µM (inactive)
- GI50 (MCF7): > 100 µM (inactive)
- GI50 (MDA-MB-231): > 100 µM (inactive)
- GI50 (MDA-MB-435): > 100 µM (inactive)
- GI50 (MDA-N): > 100 µM (inactive)
- GI50 (MOLT-4): > 100 µM (inactive)
- GI50 (Malme-3M): > 100 µM (inactive)
- GI50 (NCI-H226): > 100 µM (inactive)
- GI50 (NCI-H23): > 10 µM (inactive)
- GI50 (NCI-H460): > 100 µM (inactive)
- GI50 (NCI-H522): > 100 µM (inactive)
- GI50 (NCI/ADR-RES): > 100 µM (inactive)
- GI50 (OVCAR-3): > 100 µM (inactive)
- GI50 (OVCAR-4): > 100 µM (inactive)
- GI50 (OVCAR-5): > 100 µM (inactive)
- GI50 (OVCAR-8): > 100 µM (inactive)
- GI50 (PC-3): > 100 µM (inactive)
- GI50 (RPMI-8226): > 100 µM (inactive)
- GI50 (RXF 393): > 10 µM (inactive)
- GI50 (RXF 631): > 100 µM (inactive)
- GI50 (SF-268): > 100 µM (inactive)
- GI50 (SF-295): > 100 µM (inactive)
- GI50 (SF-539): > 100 µM (inactive)
- GI50 (SK-MEL-28): > 100 µM (inactive)
- GI50 (SK-MEL-2): > 100 µM (inactive)
- GI50 (SK-MEL-5): > 100 µM (inactive)
- GI50 (SK-OV-3): > 100 µM (inactive)
- GI50 (SN12C): > 100 µM (inactive)
- GI50 (SNB-19): > 100 µM (inactive)
- GI50 (SNB-75): > 100 µM (inactive)
- GI50 (SNB-78): > 100 µM (inactive)
- GI50 (SR): > 100 µM (inactive)
- GI50 (SW-620): > 100 µM (inactive)
- GI50 (T47D): > 100 µM (inactive)
- GI50 (TK-10): > 100 µM (inactive)
- GI50 (U-251): > 100 µM (inactive)
- GI50 (UACC-257): > 100 µM (inactive)
- GI50 (UACC-62): > 100 µM (inactive)
- GI50 (UO-31): > 100 µM (inactive)
- GI50 (XF498): > 100 µM (inactive)
